This note sets out measurements from PMC6459026 (European journal of medicinal chemistry, 2019).

Bounds are passed on as bounds.

Test [1] has as its target HIV-1 RT pol (Human immunodeficiency virus type 1 group M subtype B, UniProt P04585). The experiment in a line: RT polymerase assay. It counts as biochemical.
Test [2] deals with HIV-1 IN (INST activity) (Human immunodeficiency virus type 1 group M subtype B, UniProt P04585). As to the kind of experiment: biochemical.

Broadly, the IC50 is the concentration that inhibits the measured activity by half. Take `Cc1ccc(C(=O)c2cc(=O)n(O)c(=O)[nH]2)cc1` [Compound 7a, 3-Hydroxy-6-(4-methylbenzoyl)pyrimidine-2,4(1H,3H)-dione]: the 50% inhibitory concentration (IC50) in test [1] was over 10 µM.

For `O=C(c1ccc(C(F)(F)F)cc1)c1cc(=O)n(O)c(=O)[nH]1` [Compound 7b, 3-Hydroxy-6-(4-(trifluoromethyl)benzoyl)pyrimidine-2,4(1H,3H)-dione], the IC50 in test [1] is over 10 µM.

Compound `O=C(c1ccc(F)cc1)c1cc(=O)n(O)c(=O)[nH]1` [Compound 7c, 6-(4-Fluorobenzoyl)-3-hydroxypyrimidine-2,4(1H,3H)-dione] had an IC50 in test [1] of over 10 µM.

`COC(=O)c1ccc(C(=O)c2cc(=O)n(O)c(=O)[nH]2)cc1` [Compound 7d, Methyl 4-(1-hydroxy-2,6-dioxo-1,2,3,6-tetrahydropyrimidine-4-carbonyl)benzoate] had an IC50 in test [1] of over 10 µM.

For the compound `Cc1cc(C)cc(C(=O)c2cc(=O)n(O)c(=O)[nH]2)c1` [Compound 7e, 6-(3,5-Dimethylbenzoyl)-3-hydroxypyrimidine-2,4(1H,3H)-dione], the IC50 in test [1] is over 10 µM.

As for `Cc1ccc(-c2ccc(C(=O)c3cc(=O)n(O)c(=O)[nH]3)cc2)cc1` [Compound 8a, 3-Hydroxy-6-(4’-methyl-[1,1’-biphenyl]-4-carbonyl)pyrimidine-2,4(1H,3H)-dione], the half-inhibitory concentration (IC50) in test [1] was over 10 µM.

For `O=C(c1ccc(-c2ccc(C(F)(F)F)cc2)cc1)c1cc(=O)n(O)c(=O)[nH]1` [Compound 8b, 3-Hydroxy-6-(4’-(trifluoromethyl)-[1,1’-biphenyl]-4-carbonyl)pyrimidine-2,4(1H,3H)-dione], the concentration for half-maximal inhibition (IC50) in test [1] is over 10 µM; in test [2], over 100 µM.

In the case of `O=C(c1ccc(-c2ccc(F)cc2)cc1)c1cc(=O)n(O)c(=O)[nH]1` [Compound 8c, 6-(4’-Fluoro-[1,1’-biphenyl]-4-carbonyl)-3-hydroxypyrimidine-2,4(1H,3H)-dione], the half-inhibitory concentration (IC50) in test [1] is over 10 µM.

With `COC(=O)c1ccc(-c2ccc(C(=O)c3cc(=O)n(O)c(=O)[nH]3)cc2)cc1` [Compound 8d, Methyl 4’-(1-hydroxy-2,6-dioxo-1,2,3,6-tetrahydropyrimidine-4-carbonyl)-[1,1’-biphenyl]-4-carboxylate], the half-inhibitory concentration (IC50) in test [1] was over 10 µM.

As for `Cc1cc(C)cc(-c2ccc(C(=O)c3cc(=O)n(O)c(=O)[nH]3)cc2)c1` [Compound 8e, 6-(3’,5’-Dimethyl-[1,1’-biphenyl]-4-carbonyl)-3-hydroxypyrimidine-2,4(1H,3H)-dione], the IC50 in test [1] is over 10 µM.

Turning to `O=C(c1ccc(-c2ccccc2)cc1)c1cc(=O)n(O)c(=O)[nH]1` [Compound 8f, 6-([1,1’-Biphenyl]-4-carbonyl)-3-hydroxypyrimidine-2,4(1H,3H)-dione], the IC50 in test [1] was over 10 µM.

Consider `O=C(c1cccc(-c2ccccc2)c1)c1cc(=O)n(O)c(=O)[nH]1` [Compound 8g, 6-([1,1’-Biphenyl]-3-carbonyl)-3-hydroxypyrimidine-2,4(1H,3H)-dione], for which the half-inhibitory concentration (IC50) in test [1] was over 10 µM.

As to `COc1ccc(-c2ccc(C(=O)c3cc(=O)n(O)c(=O)[nH]3)cc2)cc1` [Compound 8h, 3-Hydroxy-6-(4’-methoxy-[1,1’-biphenyl]-4-carbonyl)pyrimidine-2,4(1H,3H)-dione], the IC50 in test [2] is over 100 µM.

With `O=C(c1ccc(-c2ccc(Cl)c(F)c2)cc1)c1cc(=O)n(O)c(=O)[nH]1` [Compound 8l, 6-(4’-Chloro-3’-fluoro-[1,1’-biphenyl]-4-carbonyl)-3-hydroxypyrimidine-2,4(1H,3H)-dione], in test [1], the half-inhibitory concentration (IC50) was over 10 µM.

On to `CCOCn1c(C(=O)c2ccc(-c3ccccc3)cc2)cc(=O)n(O)c1=O` [Compound 16f, 6-([1,1’-Biphenyl]-4-carbonyl)-1-(ethoxymethyl)-3-hydroxypyrimidine-2,4(1H,3H)-dione], for which the IC50 in test [1] was over 10 µM; in test [2], over 100 µM.

Turning to `CCOCn1c(C(=O)c2cccc(-c3ccccc3)c2)cc(=O)n(O)c1=O` [Compound 16g, 6-([1,1’-Biphenyl]-3-carbonyl)-1-(ethoxymethyl)-3-hydroxypyrimidine-2,4(1H,3H)-dione], the half-maximal inhibitory concentration (IC50) in test [1] is over 10 µM; in test [2], over 100 µM.

Regarding `CCOCn1c(C(C#N)c2cc(C)cc(C)c2)cc(=O)n(O)c1=O` (centres unmarked) [Compound 17e, 2-(3,5-Dimethylphenyl)-2-(3-(ethoxymethyl)-1-hydroxy-2,6-dioxo-1,2,3,6-tetrahydropyrimidin-4-yl)acetonitrile], the values for the concentration for half-maximal inhibition (IC50) in test [1] and in test [2] were over 10 µM and over 100 µM, respectively.

As for `CCOCn1c(C(C#N)c2ccc(-c3ccccc3)cc2)cc(=O)n(O)c1=O` (centres unmarked) [Compound 18f, 2-([1,1’-Biphenyl]-4-yl)-2-(3-(ethoxymethyl)-1-hydroxy-2,6-dioxo-1,2,3,6-tetrahydropyrimidin-4-yl)acetonitrile], the concentration for half-maximal inhibition (IC50) in test [1] was over 10 µM; in test [2], over 100 µM.
